For one test, the target named is T1, human Nav1.5 (Homo sapiens, UniProt Q14524).
T1 construct: expressed in transfected cells
As to the kind of experiment: PatchXpress automated patch-clamp, inactivated state block of Nav1.5 (selectivity). Format: cell-based. The following applies: determined by PatchXpress measurement, HEK 293 cells. The protocol:
(§1) Compounds were tested on human Nav1.7 and Nav1.5 channels stably expressed in HEK 293 cells. Activity toward Nav 1.7 and Nav 1.5 channels was assessed using the following assay methodology.
(§2) Sodium Current Measurements on the PatchXpress 7000®:
(§3) To measure inactivated state block of sodium channels, test compounds were characterized in an automated PatchXpress® assay (Molecular Devices) using a double-pulse protocol on human Nav1.7 and Nav1.5 channels stably expressed in HEK 293 cells. Cells were held at a potential 20 mV negative to V0.5 inact. An 8000 ms pre-pulse 7 mV positive to V0.5 inact was given followed by a hyperpolarizing 2 ms pulse to −120 mV and a 20 ms test pulse to −20 mV. Protocol was applied to cells in the absence, presence of compound and after washout. The temperature of PatchXpress instruments was maintained at 22° C. The following recording solutions were used. Internal solution (mM): 30 CsCl, 5 HEPES, 10 EGTA, 120 CsF, 5 NaF, 2 MgCl2. External solution (mM): 120 NMDG, 40 NaCl, 1 KCl, 0.5 MgCl2, 5 HEPES, 2.7 CaCl2.
(§4) For all electrophysiology experiments, offline analysis was used to correct for current rundown and to determine percent inhibition as a function of drug concentration. IC50 values were determined by fitting to the Hill equation.

The next test deals with T2, human Nav1.7 (Homo sapiens, UniProt Q15858).
T2 construct: expressed in transfected cells
T2 sequence (Q15858 whole entry): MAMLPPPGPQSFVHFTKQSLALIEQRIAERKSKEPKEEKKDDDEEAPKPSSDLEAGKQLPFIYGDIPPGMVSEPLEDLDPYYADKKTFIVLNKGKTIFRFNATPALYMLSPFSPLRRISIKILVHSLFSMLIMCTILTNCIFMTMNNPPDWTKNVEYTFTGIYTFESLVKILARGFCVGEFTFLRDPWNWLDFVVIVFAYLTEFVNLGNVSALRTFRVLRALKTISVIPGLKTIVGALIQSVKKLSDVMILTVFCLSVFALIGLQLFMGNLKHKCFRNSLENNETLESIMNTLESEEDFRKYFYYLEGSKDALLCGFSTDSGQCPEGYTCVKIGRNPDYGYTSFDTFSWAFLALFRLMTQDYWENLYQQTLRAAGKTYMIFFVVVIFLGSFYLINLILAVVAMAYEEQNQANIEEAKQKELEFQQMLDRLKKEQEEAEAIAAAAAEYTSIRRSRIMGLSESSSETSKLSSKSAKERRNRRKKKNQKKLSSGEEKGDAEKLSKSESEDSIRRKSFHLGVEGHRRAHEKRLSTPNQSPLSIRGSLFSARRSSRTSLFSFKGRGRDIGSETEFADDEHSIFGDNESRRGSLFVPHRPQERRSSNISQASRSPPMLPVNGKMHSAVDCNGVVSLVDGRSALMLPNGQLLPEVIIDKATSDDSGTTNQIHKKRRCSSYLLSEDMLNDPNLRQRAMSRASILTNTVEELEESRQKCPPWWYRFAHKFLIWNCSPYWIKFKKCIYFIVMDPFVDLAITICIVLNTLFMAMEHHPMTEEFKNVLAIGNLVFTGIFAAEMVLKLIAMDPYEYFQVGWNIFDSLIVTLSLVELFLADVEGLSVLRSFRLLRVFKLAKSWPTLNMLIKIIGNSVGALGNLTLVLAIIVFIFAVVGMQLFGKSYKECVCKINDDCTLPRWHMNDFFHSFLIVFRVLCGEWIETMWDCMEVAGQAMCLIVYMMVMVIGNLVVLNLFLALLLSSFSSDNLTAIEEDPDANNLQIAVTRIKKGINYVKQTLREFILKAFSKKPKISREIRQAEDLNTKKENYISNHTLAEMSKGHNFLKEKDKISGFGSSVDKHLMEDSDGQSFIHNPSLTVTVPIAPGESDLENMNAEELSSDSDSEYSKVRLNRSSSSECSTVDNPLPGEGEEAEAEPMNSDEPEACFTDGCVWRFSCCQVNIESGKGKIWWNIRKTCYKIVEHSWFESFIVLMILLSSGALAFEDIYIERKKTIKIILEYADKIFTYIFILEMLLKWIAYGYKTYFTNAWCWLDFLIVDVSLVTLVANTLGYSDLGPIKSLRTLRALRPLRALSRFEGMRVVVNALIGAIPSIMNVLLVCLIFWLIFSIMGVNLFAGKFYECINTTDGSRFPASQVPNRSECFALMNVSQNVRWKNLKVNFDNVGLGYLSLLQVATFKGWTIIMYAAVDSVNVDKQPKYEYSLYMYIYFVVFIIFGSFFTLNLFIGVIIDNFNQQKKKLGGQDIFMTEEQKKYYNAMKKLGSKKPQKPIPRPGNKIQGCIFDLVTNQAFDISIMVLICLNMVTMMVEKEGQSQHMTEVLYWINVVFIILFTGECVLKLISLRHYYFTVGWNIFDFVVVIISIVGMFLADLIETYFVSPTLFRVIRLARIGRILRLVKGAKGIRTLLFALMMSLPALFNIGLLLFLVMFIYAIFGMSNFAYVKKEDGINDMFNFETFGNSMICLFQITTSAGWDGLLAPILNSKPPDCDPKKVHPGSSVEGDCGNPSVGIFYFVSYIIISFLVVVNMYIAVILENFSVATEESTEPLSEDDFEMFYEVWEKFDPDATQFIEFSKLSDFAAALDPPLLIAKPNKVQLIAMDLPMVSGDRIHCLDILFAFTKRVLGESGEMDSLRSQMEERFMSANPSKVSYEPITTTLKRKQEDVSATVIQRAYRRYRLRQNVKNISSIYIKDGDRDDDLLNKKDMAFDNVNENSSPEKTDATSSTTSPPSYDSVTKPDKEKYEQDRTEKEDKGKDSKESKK
The test can be described thus: PatchXpress automated patch-clamp, inactivated state block of Nav1.7. Format: cell-based. The settings on record: channels stably expressed in HEK 293 cells, 22° C., read-out: potency for the Nav 1.7 sodium ion channel (as measured by PatchXpress). Here is the method:
as §1, §2, §3, §4

T1 sequence (Q14524 whole entry): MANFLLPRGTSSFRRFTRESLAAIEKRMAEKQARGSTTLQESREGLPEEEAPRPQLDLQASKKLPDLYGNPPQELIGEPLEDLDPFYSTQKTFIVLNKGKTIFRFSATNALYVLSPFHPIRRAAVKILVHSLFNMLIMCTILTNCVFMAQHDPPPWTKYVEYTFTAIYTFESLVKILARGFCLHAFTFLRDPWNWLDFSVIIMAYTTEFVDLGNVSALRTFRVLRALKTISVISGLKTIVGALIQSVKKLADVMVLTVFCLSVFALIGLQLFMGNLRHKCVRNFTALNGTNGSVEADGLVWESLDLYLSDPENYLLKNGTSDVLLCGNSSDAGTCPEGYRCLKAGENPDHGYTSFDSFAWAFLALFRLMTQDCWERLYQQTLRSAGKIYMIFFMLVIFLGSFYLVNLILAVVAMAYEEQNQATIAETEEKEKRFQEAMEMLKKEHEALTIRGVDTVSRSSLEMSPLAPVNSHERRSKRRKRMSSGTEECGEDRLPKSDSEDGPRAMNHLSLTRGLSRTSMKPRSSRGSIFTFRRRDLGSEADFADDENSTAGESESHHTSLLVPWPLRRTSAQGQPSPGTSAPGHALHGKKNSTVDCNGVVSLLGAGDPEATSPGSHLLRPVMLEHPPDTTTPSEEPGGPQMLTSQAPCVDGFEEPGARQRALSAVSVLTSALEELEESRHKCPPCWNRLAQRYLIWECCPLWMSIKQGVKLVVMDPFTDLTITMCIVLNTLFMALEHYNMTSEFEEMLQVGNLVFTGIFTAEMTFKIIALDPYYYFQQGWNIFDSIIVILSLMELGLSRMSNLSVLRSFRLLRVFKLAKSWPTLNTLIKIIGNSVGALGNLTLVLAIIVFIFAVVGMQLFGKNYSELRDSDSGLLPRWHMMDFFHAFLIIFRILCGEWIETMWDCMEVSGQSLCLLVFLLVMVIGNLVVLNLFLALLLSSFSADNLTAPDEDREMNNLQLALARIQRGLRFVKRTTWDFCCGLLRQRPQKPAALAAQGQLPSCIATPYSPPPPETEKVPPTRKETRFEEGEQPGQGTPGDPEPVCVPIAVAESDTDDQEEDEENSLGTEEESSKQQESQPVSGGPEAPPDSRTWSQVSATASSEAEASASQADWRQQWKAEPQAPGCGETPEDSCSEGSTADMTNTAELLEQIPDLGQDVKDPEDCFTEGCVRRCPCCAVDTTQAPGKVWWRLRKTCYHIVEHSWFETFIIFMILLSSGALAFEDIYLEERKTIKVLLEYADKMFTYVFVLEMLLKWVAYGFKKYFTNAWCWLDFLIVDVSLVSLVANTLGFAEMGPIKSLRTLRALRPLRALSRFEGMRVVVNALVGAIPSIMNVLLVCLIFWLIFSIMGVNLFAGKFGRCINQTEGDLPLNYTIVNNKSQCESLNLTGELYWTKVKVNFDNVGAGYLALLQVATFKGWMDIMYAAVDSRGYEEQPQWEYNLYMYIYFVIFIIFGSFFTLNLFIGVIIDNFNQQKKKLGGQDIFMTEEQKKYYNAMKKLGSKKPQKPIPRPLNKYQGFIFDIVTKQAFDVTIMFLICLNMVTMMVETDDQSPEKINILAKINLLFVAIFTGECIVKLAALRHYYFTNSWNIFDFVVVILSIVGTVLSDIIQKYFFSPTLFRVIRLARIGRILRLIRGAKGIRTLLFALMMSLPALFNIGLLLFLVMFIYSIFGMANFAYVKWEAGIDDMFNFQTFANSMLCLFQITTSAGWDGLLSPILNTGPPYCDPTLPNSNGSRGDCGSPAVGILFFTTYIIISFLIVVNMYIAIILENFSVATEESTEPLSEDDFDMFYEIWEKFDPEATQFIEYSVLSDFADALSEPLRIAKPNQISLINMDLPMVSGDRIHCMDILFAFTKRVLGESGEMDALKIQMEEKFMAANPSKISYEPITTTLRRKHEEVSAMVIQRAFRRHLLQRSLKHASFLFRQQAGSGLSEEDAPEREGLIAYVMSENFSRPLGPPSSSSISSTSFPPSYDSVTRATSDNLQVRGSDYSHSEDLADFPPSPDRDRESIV

On to `CC1(C)CN2CCCC2(CNc2cc(F)c(S(=O)(=O)Nc3ncc(F)s3)cc2Cl)C1` (single isomer, unassigned) [Ex8-21-A, (R or S) 5-chloro-4-(((2,2-dimethylhexahydro-1H-pyrrolizin-7a-yl)methyl)amino)-2-fluoro-N-(5-fluorothiazol-2-yl)benzenesulfonamide], for which the “ratio of Nav1.7 potency:Nav 1.5 potency” value on human Nav1.5 was 851. Besides, the IC50 at human Nav1.7 turned out to be 35 nM.
`N#Cc1cc(S(=O)(=O)Nc2nccs2)ccc1NCC12CCCN1CC(F)(F)C2` (racemic) [Ex6-6, (R and S)-3-cyano-4-{[(2,2-difluorotetrahydro-1H-pyrrolizin-7a(5H)-yl)methyl]amino}-N-(1,3-thiazol-2-yl)benzenesulfonamide]: the “ratio of Nav1.7 potency:Nav 1.5 potency” value at human Nav1.5 was 64. The IC50 at human Nav1.7 came to 472 nM.
In the same order, the values of `CCc1cc(S(=O)(=O)Nc2nccs2)c(F)cc1NCC12CCCN1CC(C)(C)C2` (single isomer, unassigned) [Ex18-9-B, (R or S)-4-(((2,2-dimethylhexahydro-1H-pyrrolizin-7a-yl)methyl)-amino)-5-ethyl-2-fluoro-N-(thiazol-2-yl)-benzenesulfonamide] are 1870 and 16 nM.
Take `O=S(=O)(Nc1nccs1)c1ccc(NCC23CCCN2CCC3)c(C(F)(F)F)c1` [Ex1-20, 4-(((hexahydro-1H-pyrrolizin-7a-yl)methyl)amino)-N-(thiazol-2-yl)-3-(trifluoromethyl)benzene-sulfonamide]: the “ratio of Nav1.7 potency:Nav 1.5 potency” value on human Nav1.5 was found to be 765. Further, the IC50 at human Nav1.7 is 14 nM.
Take `O=S(=O)(Nc1cccnn1)c1cc(Cl)c(NCC23CCCN2CCC3)cc1F` [Ex3-5, 5-chloro-2-fluoro-N-(pyridazin-3-yl)-4-[(tetrahydro-1H-pyrrolizin-7a(5H)-ylmethyl)amino]benzene-sulfonamide]: at human Nav1.5, the “ratio of Nav1.7 potency:Nav 1.5 potency” value is listed as 100. For the same molecule, on human Nav1.7, the IC50 came out at 1000 nM.
`CC1CN2CCCC2(CNc2cc(F)c(S(=O)(=O)Nc3ncc(Cl)s3)cc2Cl)C1` [Ex4-10, 5-chloro-N-(5-chlorothiazol-2-yl)-2-fluoro-4-((((2S,7aR and 2R,7aS)-2-methylhexahydro-1H-pyrrolizin-7a-yl)methyl)-amino)benzene-sulfonamide]: the “ratio of Nav1.7 potency:Nav 1.5 potency” value on human Nav1.5 worked out at 2681. Besides, the IC50 on human Nav1.7 stood at 10 nM.
As for `O=S(=O)(Nc1nccs1)c1cc(Br)c(NCC23CCCN2CCC3)cc1F` [Ex1-17, 5-bromo-2-fluoro-4-(((hexahydro-1H-pyrrolizin-7a-yl)methyl)amino)-N-(thiazol-2-yl)benzenesulfonamide], at human Nav1.5, the “ratio of Nav1.7 potency:Nav 1.5 potency” value was found to be 670. At human Nav1.7, the IC50 was 5 nM.
As for `COc1ccc([C@H]2CN3CCC[C@]3(CNc3cc(F)c(S(=O)(=O)Nc4nccs4)cc3Cl)C2)cc1` (single isomer, unassigned) [Ex16-12-B], the “ratio of Nav1.7 potency:Nav 1.5 potency” value at human Nav1.5 was 708. Further, on human Nav1.7, the IC50 turned out to be 21 nM.
In the same order, the values of `O=S(=O)(Nc1cccc(F)n1)c1cc(F)c(NCC23CCCN2CCC3)cc1F` [Ex2-4, 2,5-difluoro-N-(6-fluoropyridin-2-yl)-4-[(tetrahydro-1H-pyrrolizin-7a(5H)-ylmethyl)amino]benzene-sulfonamide] are 269 and 350 nM.
With `COc1ccc(C[C@H]2CN3CCC[C@@]3(CNc3cc(F)c(S(=O)(=O)Nc4nccs4)cc3Cl)C2)cc1` (single isomer, unassigned) [Ex15-10-A], the “ratio of Nav1.7 potency:Nav 1.5 potency” value on human Nav1.5 stood at 918. The IC50 on human Nav1.7 is 2 nM.
Regarding `CCOC(=O)c1cnc(NS(=O)(=O)c2cc(Cl)c(NCC34CCCN3CCC4)cc2F)s1` [Ex1-16, ethyl 2-(5-chloro-2-fluoro-4-(((hexahydro-1H-pyrrolizin-7a-yl)methyl)amino)phenylsulfonamido)thiazole-5-carboxylate], the “ratio of Nav1.7 potency:Nav 1.5 potency” value on human Nav1.5 was determined as 484. The IC50 at human Nav1.7 was 62 nM.
As to `O=S(=O)(Nc1ncc(F)s1)c1ccc(NCC23CCCN2CC(F)C3)c(C(F)(F)F)c1` (single isomer, unassigned) [Ex9-12-B, 4-((((2S,7aR or 2R,7aS)-2-fluoro-hexahydro-1H-pyrrolizin-7a-yl)methyl)amino)-N-(5-fluorothiazol-2-yl)-3-(trifluoromethyl)-benzenesulfonamide], the “ratio of Nav1.7 potency:Nav 1.5 potency” value on human Nav1.5 is given as 300. Besides, the IC50 on human Nav1.7 was 80 nM.
As for `O=S(=O)(Nc1nccs1)c1cc(Cl)c(NC[C@]23CCCN2[C@@H](CO)CC3)cc1F` (single isomer, unassigned) [Ex14-11-B], the “ratio of Nav1.7 potency:Nav 1.5 potency” value on human Nav1.5 came to 3045. The IC50 at human Nav1.7 worked out at 10 nM.
Regarding `CC1CN2CCCC2(CNc2cc(F)c(S(=O)(=O)Nc3nccs3)cc2Cl)C1` [Ex4-9, 5-chloro-2-fluoro-4-{[((2S,7aR and 2R,7aS)-2-methyl-tetrahydro-1H-pyrrolizin-7a(5H)-yl)methyl]amino}-N-(1,3-thiazol-2-yl)-benzenesulfonamide], the IC50 at human Nav1.7 amounted to 9 nM.
Regarding `O=S(=O)(Nc1ncc(F)s1)c1cc(Cl)c(NCC23CCCN2CC(F)C3)cc1F` (single isomer, unassigned) [Ex9-10-B, 5-chloro-2-fluoro-4-((((2S,7aR or 2R,7aS)-2-fluoro-hexahydro-1H-pyrrolizin-7a-yl)-methyl)amino)-N-(5-fluorothiazol-2-yl)-benzenesulfonamide], the “ratio of Nav1.7 potency:Nav 1.5 potency” value at human Nav1.5 was determined as 122. Further, at human Nav1.7, the IC50 was determined as 58 nM.
`N#Cc1cc(S(=O)(=O)Nc2nccs2)c(F)cc1NCC12CCCN1CCC2` [Ex1-10, 5-cyano-2-fluoro-4-[(tetrahydro-1H-pyrrolizin-7a(5H)-ylmethyl)amino]-N-(1,3-thiazol-2-yl)benzenesulfonamide]: the “ratio of Nav1.7 potency:Nav 1.5 potency” value on human Nav1.5 is reported as 94. Moreover, the IC50 on human Nav1.7 came out at 221 nM.
For the molecule `CCc1cc(S(=O)(=O)Nc2ncc(F)s2)c(F)cc1NCC12CCCN1CCC2` [Ex18-8, 5-ethyl-2-fluoro-N-(5-fluorothiazol-2-yl)-4-(((hexahydro-1H-pyrrolizin-7a-yl)-methyl)amino)-benzenesulfonamide], on human Nav1.5, the “ratio of Nav1.7 potency:Nav 1.5 potency” value turned out to be 2595. For the same molecule, the IC50 on human Nav1.7 amounted to 5 nM.
Take `O=S(=O)(Nc1ncc(F)s1)c1ccc(NCC23CCCN2CC(F)C3)c(Cl)c1` (single isomer, unassigned) [Ex9-14-B, 3-chloro-4-((((2S,7aR or 2R,7aS)-2-fluoro-hexahydro-1H-pyrrolizin-7a-yl)methyl)amino)-N-(5-fluorothiazol-2-yl)-benzenesulfonamide]: the “ratio of Nav1.7 potency:Nav 1.5 potency” value on human Nav1.5 turned out to be 171. In addition, the IC50 on human Nav1.7 was determined as 176 nM.
Turning to `N#Cc1cc(S(=O)(=O)Nc2ncc(Cl)s2)ccc1NCC12CCCN1CCC2` [Ex3-4, N-(5-chloro-1,3-thiazol-2-yl)-3-cyano-4-[(tetrahydro-1H-pyrrolizin-7a(5H)-ylmethyl)amino]benzene-sulfonamide], the “ratio of Nav1.7 potency:Nav 1.5 potency” value on human Nav1.5 was determined as 199. The IC50 at human Nav1.7 amounted to 151 nM.
In the case of `N#Cc1cc(S(=O)(=O)Nc2nccs2)ccc1NCC12CCCN1CCC2` [Ex2-2, 3-cyano-4-[(tetrahydro-1H-pyrrolizin-7a(5H)-ylmethyl)amino]-N-(1,3-thiazol-2-yl)benzenesulfonamide], at human Nav1.5, the “ratio of Nav1.7 potency:Nav 1.5 potency” value is on record as 746. Further, the IC50 at human Nav1.7 is 40 nM.
For `CCc1cc(S(=O)(=O)Nc2nccs2)c(F)cc1NC[C@]12CCCN1C[C@@H](Cc1ccc(OC)cc1)C2` (single isomer, unassigned) [Ex18-5-B], the “ratio of Nav1.7 potency:Nav 1.5 potency” value at human Nav1.5 was found to be 359. Also, the IC50 on human Nav1.7 was found to be 40 nM.
For `CC1CCC2(CNc3ccc(S(=O)(=O)Nc4ncc(F)s4)cc3Cl)CCCN12` (single isomer, unassigned) [Ex11-12-A, 3-chloro-N-(5-fluorothiazol-2-yl)-4-((((3S,7aS or 3R,7aR)-3-methylhexahydro-1H-pyrrolizin-7a-yl)methyl)amino)benzene-sulfonamide], the “ratio of Nav1.7 potency:Nav 1.5 potency” value at human Nav1.5 came to 1335. The IC50 at human Nav1.7 was 22 nM.
In the case of `COc1ccc(CC2CN3CCCC3(CNc3cc(F)c(S(=O)(=O)Nc4ncc(F)s4)cc3Cl)C2)cc1` (single isomer, unassigned) [Ex15-12-A, 5-chloro-2-fluoro-N-(5-fluorothiazol-2-yl)-4-((((2R,7aS or 2S,7aR)-2-(4-methoxybenzyl)hexahydro-1H-pyrrolizin-7a-yl)-methyl)amino)benzene-sulfonamide], the “ratio of Nav1.7 potency:Nav 1.5 potency” value at human Nav1.5 turned out to be 282. Further, at human Nav1.7, the IC50 came to 8 nM.
Take `O=S(=O)(Nc1nccs1)c1cc(Cl)c(NCC23CCCCN2CCC3)cc1F` (single isomer, unassigned) [Ex17-7-B, (R or S) 5-chloro-2-fluoro-4-(((octahydroindolizin-8a-yl)methyl)amino)-N-(thiazol-2-yl)benzenesulfonamide]: on human Nav1.5, the “ratio of Nav1.7 potency:Nav 1.5 potency” value turned out to be 193. Also, the IC50 at human Nav1.7 was found to be 185 nM.
The like results for `CC1(C)CN2CCCC2(CNc2cc(F)c(S(=O)(=O)Nc3ncc(Cl)s3)cc2Cl)C1` (single isomer, unassigned) [Ex8-19-B, (S or R) 5-chloro-N-(5-chlorothiazol-2-yl)-4-(((2,2-dimethylhexahydro-1H-pyrrolizin-7a-yl)methyl)amino)-2-fluorobenzenesulfonamide] were, in that order, 265 and 135 nM.
